Earlier results as cited in patent publication US12655468B2, “Genetic predictors of a response to treatment with CRHR1 antagonists” (HMNC Holding GmbH, priority 2015, dated 2026).

Test system: mice overexpressing CRH in the forebrain

## COCC(COC)Nc1nc(C)nc2c(-c3ccc(Cl)cc3Cl)c(C)nn12 [DMP696]
  effect on increased REM sleep: could reverse the REM enhancement
